Assay results published in patent US8663646B2, “P53 peptide vaccine” (priority 2007, dated 2014).
Where two headings read alike, the source gives them in different places. Blank lines part the entries; values can stand above or below the molecule they belong to. Where no end group is shown, it is not given here.

Columns and labels:
[1] = biological target: T1, 20S immuno-proteasomes from mouse B-cell line (RMA) (Mus musculus, UniProt O35955+P28063+P28076); assay: In vitro proteasome mediated digestion of 30-mers, mass spectrometry, immunoproteasome RMA; format: biochemical; conditions: 30 residue long precursor peptides
T1 construct: 20S immuno-proteasomes were purified from a mouse B-cell line (RMA); endogenous in cells; host or cells: RMA cells; 20S proteasome purified from them
In short: (§1)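 30-mer peptides (20 μg) digested with 1 μg purified 20S proteasome (JY or RMA immunoproteasome, HeLa household proteasome) at 37° C for 1, 4 and 24 h, stopped with TFA. Nano-ESI Q-TOF MS; fragments quantified by peak intensity as percent of total digested peptide per time point; major cleavage site >1% within first hour.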

[2] = biological target: T2, 20S immuno-proteasomes from human B-LCL cell line (JY) (Homo sapiens, UniProt P28062+P28065+P40306); assay: In vitro proteasome mediated digestion of 30-mers, mass spectrometry, immunoproteasome JY; format: biochemical; conditions: 30 residue long precursor peptides
T2 construct: purified from a mouse B-cell line (RMA) and a human B-LCL cell line (JY); endogenous in cells; host or cells: B-LCL JY cells; 20S proteasome purified from them
In short: as §1

[3] = biological target: T3, 20S household proteasomes from human tumor cell line (HeLa) (Homo sapiens, UniProt P28072+P28074+Q99436); assay: In vitro proteasome mediated digestion of 30-mers, mass spectrometry, household proteasome HeLa; format: biochemical; conditions: 30 residue long precursor peptides
T3 construct: 20S household proteasomes were purified from human tumor cell line (HeLa); endogenous in cells; host or cells: HeLa cells; 20S proteasome purified from them
Procedure: (§2) In the context of the invention, “being inefficiently processed by a proteasome” preferably means that within the first hour of digestion by a proteasome less than 1% of total digested peptide is found. The processing by a proteasome is preferably assessed by incubating a purified proteasome, more preferably a human proteasome with a peptide comprising the potential CTL epitope (30 amino acid length approximately) in a proteasome digestion buffer during at least one hour at 37° C. The reaction is subsequently stopped by adding trifluoroacetic acid. Analysis of the digested peptides is performed with electrospray ionization mass spectrometry (see example 1). Even more preferably, the human proteasome is an immunoproteasome from B-LCL JY cells (Kessler J H et al. 2001).
(§3) 20S immuno-proteasomes were purified from a mouse B-cell line (RMA) and a human B-LCL cell line (JY) and 20S household proteasomes were purified from human tumor cell line (HeLa) as described (Kessler J H et al 2001). To assess kinetics, digestions were performed with different incubation periods as indicated. Briefly, peptides containing the (potential) CTL epitopes (30 mers, 20 μg) were incubated with 1 μg of purified proteasome at 37° C. for 1 h, 4 h and 24 h in 300 μl proteasome digestion buffer, trifluoroacetic acid (30 μl) was added to stop the digestion and samples were stored at −20° C. before mass spectrometric analysis. Electrospray ionization mass spectrometry was performed on a hybrid quadrupole time-of-flight mass spectromter, a Q-TOF (Micromass), equipped with an on-line nanoelectrospray interface with an approximate flow rate of […] as described (Kessler J H et al 2001). The peaks in the mass spectrum were searched in the digested precursor peptide using the Biolynx/proteins software (Micromass) supplied with the mass spectrometer. The intensity of the peaks in the mass spectra was used to establish the relative amounts of peptides generated after proteasome digestion. The relative amounts of the peptides are given as a percentage of the total amount of peptide digested by the proteasome at the indicated incubation time. Major cleavage sites are defined as more than >1% of total digested peptide within the first hour.

HLA-A*0201 [4] = biological target: T4, HLA-A*0201 (Homo sapiens, UniProt P04439, D140Y/D185E/D98H/E176V/E277Q/G131W/G231S/I119V/I121R/I166T/I218V/L300P/L318F/N151K/N90K/P208A/P217A/Q86G/Q94H/R138H/R169H/T345S); conditions: binding capacity previously determined, read-out: Peptide Binding Affinity; cited from earlier work
proteasome = assay: Proteasome processing, summarised over proteasome types (Table 5); format: biochemical; conditions: 30 residue long precursor peptides
Procedure: as §2, §3

HLA-A*0101 [5] = biological target: T5, HLA-A*0101 (Homo sapiens, UniProt P04439, A114D/A174V/A182V/D101N/D185E/E176A/E190D/L180R/Q94H/R68K/S129P/T187R/V100A/V91M/W191G); assay: Competition based cellular binding assay, HLA-A*0101 (B-cell line CAA)
T5 construct: B-cell lines used are: CAA (A*0101), EKR (A*0301), BVR (A*1101), VIJF (A*2401); endogenous in cells; host or cells: B-cell line CAA

HLA-A*0101 [6] = biological target: T5, HLA-A*0101; assay: Stability of peptide-HLA complex, binding at 4° C. and 20° C., HLA-A*0101; conditions: for HLA binding Stability (Table 5): HLA type A1; for Peptide Binding Stability: HLA-A*0101, IC50 at 20° C. vs 4° C.
HLA-A*0201 [7] = biological target: T4, HLA-A*0201; assay: Peptide stabilization for HLA-A*0201; format: binding; conditions: for Peptide Binding Stability: HLA-A*0201, p53 peptides
[8] = biological target: T2, 20S immuno-proteasomes from human B-LCL cell line (JY); conditions: PRAME peptides (Kessler J H et al 2001); cited from earlier work
HLA-A*2401 [9] = assay: Competition based cellular binding assay, HLA-A*2401 (B-cell line VIJF); set-up: species or system human; conditions: HLA-A*2401, IC50 category
HLA-A*2401 [10] = assay: Stability of peptide-HLA complex, binding at 4° C. and 20° C., HLA-A*2401; set-up: species or system human; conditions: HLA-A*2401; IC50 at 20° C. vs 4° C.
Procedure: Stability of other peptide-HLA complexes was preferably determined as follows. […] Peptides of >50% of the initial complexes was lost within 2 hours were considered unstable. […] The rest was designated as unstable peptide binding.
Peptides 8-11 residues in length were selected based on typical anchor residues for HLA-A*0101, A*0301, A*1101 and HLA-A*2401 (Rammensee H G et al). The capacity of peptides to bind was tested in a competition based cellular binding assay as previously described (van der Burg S H et al 1995). FL-labeled reference peptides were synthesized as Cys-derivative (van der Burg S H et al 1995). Fluorescence labeled reference peptides used were: YLEPAC(FL)AK (SEQ ID NO: 87) (HLA-A*0101) and KVFPC(FL)ALINK (SEQ ID NO: 88) (HLA-A*1101) (Sette A et al), KVFPC(FL)ALINK (SEQ ID NO: 89) (HLAA*0301) (van der Burg S H et al 1995) and RYLKC(FL)QQLL (SEQ ID NO: 90) (A*2401) (Dai L C et al). B-cell lines used are: CAA (A*0101), EKR (A*0301), BVR (A*1101), VIJF (A*2401). The relative binding capacity of the peptides is expressed as the peptide concentration to inhibit 50% (1050) of the binding of the reference peptide. […] Peptide stabilization for HLA-A*0201 was performed as previously described (van der Burg S H et al, 1996). Peptides of >50% of the initial complexes was lost within 2 hours were considered unstable. Stability of other peptide-HLA complexes was determined as follows. Peptide binding was performed at 4° C. and 20° C. and 1050 were determined. […] The rest was designated as unstable peptide binding.

[11] = HLA-A*0101, IC50 category, read-out: Peptide Binding Affinity

Molecule: CC(C)C[C@H](NC(=O)[C@@H](NC(=O)[C@H](Cc1ccccc1)NC(=O)[C@H](Cc1ccc(O)cc1)NC(=O)[C@H](CCC(=O)O)NC(=O)CNC(=O)[C@H](CC(=O)O)NC(=O)[C@H](CC(C)C)NC(=O)[C@@H]1CCCN1)[C@@H](C)O)C(=O)O [p53 322-330]
Proteasomal Cleavage of C-terminus, IP (RMA) [1]: + (Major cleavage sites are defined as more than >1% of total digested peptide within the first hour)
Proteasomal Cleavage of C-terminus, IP (JY) [2]: + (Major cleavage sites are defined as more than >1% of total digested peptide within the first hour)
Proteasomal Cleavage of C-terminus, HH (HeLa) [3]: + (Major cleavage sites are defined as more than >1% of total digested peptide within the first hour)
IC50 (HLA-A*0201 [4]): 5 to 15 µM

Molecule: CC(C)C[C@H](NC(=O)[C@@H](N)CC(C)C)C(=O)NCC(=O)N[C@@H](CCCNC(=N)N)C(=O)N[C@@H](CC(N)=O)C(=O)N[C@@H](CO)C(=O)N[C@@H](Cc1ccccc1)C(=O)N[C@@H](CCC(=O)O)C(=O)N[C@H](C(=O)O)C(C)C [p53 264-272]
generation / processing by household and immunoproteasomes, in words (proteasome): not well processed

IC50 (HLA-A*0101 [5]; HLA type A1, read-out: HLA binding Affinity (Table 5)): 15 to 50 µM
IC50 (HLA-A*0101 [5]; [11]): 5 to 15 µM
Molecule: CC[C@H](C)[C@H](NC(=O)[C@@H](NC(=O)[C@@H](NC(=O)[C@@H](N)CS)[C@@H](C)O)[C@@H](C)O)C(=O)N[C@@H](Cc1c[nH]cn1)C(=O)N[C@@H](Cc1ccc(O)cc1)C(=O)N[C@@H](CC(N)=O)C(=O)N[C@@H](Cc1ccc(O)cc1)C(=O)O [p53 229-236]
HLA binding Stability (Table 5) (HLA-A*0101 [6]): − (The rest was designated as unstable peptide binding.)
Peptide Binding Stability (HLA-A*0101 [6]): − (The rest was designated as unstable peptide binding.)

Molecule: CC[C@H](C)[C@H](NC(=O)[C@H](CC(C)C)NC(=O)[C@H](Cc1c[nH]cn1)NC(=O)[C@H](CCC(N)=O)NC(=O)[C@@H]1CCCN1C(=O)[C@@H]1CCCN1C(=O)[C@H](C)NC(=O)[C@H](CC(C)C)NC(=O)CN)C(=O)N[C@@H](CCCNC(=N)N)C(=O)N[C@H](C(=O)O)C(C)C [p53 187-197]
capacity to form stable peptide-HLA-A*0201 complexes, in words (HLA-A*0201 [7]): forms stable peptide-HLA complexes
Peptide Binding Stability (HLA-A*0201 [7]): 6 h
Proteasomal Cleavage of C-terminus, IP (RMA) [1]: + (Major cleavage sites are defined as more than >1% of total digested peptide within the first hour)
Proteasomal Cleavage of C-terminus, IP (JY) [2]: + (Major cleavage sites are defined as more than >1% of total digested peptide within the first hour)
Proteasomal Cleavage of C-terminus, HH (HeLa) [3]: + (Major cleavage sites are defined as more than >1% of total digested peptide within the first hour)
generation / processing by household and immunoproteasomes, in words (proteasome): efficiently generated

Molecule: SLYSFPEPEA [PRA 142-151]
Proteasomal Cleavage of C-terminus, IP (JY) [8]: + (Major cleavage sites are defined as more than >1% of total digested peptide within the first hour)

Molecule: SLLQHLIGL [PRA 425-433]
Proteasomal Cleavage of C-terminus, IP (JY) [8]: + (Major cleavage sites are defined as more than >1% of total digested peptide within the first hour)

Molecule: VLDGLDVLL [PRA 100-108]
Proteasomal Cleavage of C-terminus, IP (JY) [8]: + (Major cleavage sites are defined as more than >1% of total digested peptide within the first hour)

IC50 (HLA-A*2401 [9]; read-out: Peptide Binding Affinity): < 5 µM
Molecule: CSCC[C@H](NC(=O)[C@H](CCCCN)NC(=O)[C@H](CC(N)=O)NC(=O)[C@H](CC(C)C)NC(=O)[C@H](C)NC(=O)[C@@H]1CCCN1C(=O)[C@H](CO)NC(=O)[C@H](Cc1ccc(O)cc1)NC(=O)[C@@H](N)[C@@H](C)O)C(=O)N[C@@H](Cc1ccccc1)C(=O)O [p53 125-134]
Peptide Binding Affinity (HLA-A*2401 [9]): high
Peptide Binding Stability (HLA-A*2401 [10]): + (Stable peptides displayed IC50 at 20 °C that deviated <2 times of the IC50 at 4° C.)
generation / processing by household and immunoproteasomes, in words (proteasome): not/inefficiently processed

capacity to form stable peptide-HLA-A*0201 complexes, in words (HLA-A*0201 [7]): weak
Peptide Binding Stability (HLA-A*0201 [7]): <2 h
Molecule: CC(C)[C@H](NC(=O)[C@H](CCCNC(=N)N)NC(=O)[C@@H](NC(=O)CNC(=O)[C@@H]1CCCN1C(=O)[C@@H]1CCCN1C(=O)[C@@H]1CCCN1C(=O)[C@@H](NC(=O)[C@@H](N)CO)[C@@H](C)O)[C@@H](C)O)C(=O)O [p53 149-157]
HLA binding Stability (Table 5) (HLA-A*0201 [7]; HLA type A2, class symbol): − (Peptides of >50% of the initial complexes was lost within 2 hours were considered unstable)
Proteasomal Cleavage of C-terminus, IP (RMA) [1]: + (Major cleavage sites are defined as more than >1% of total digested peptide within the first hour)
Proteasomal Cleavage of C-terminus, IP (JY) [2]: + (Major cleavage sites are defined as more than >1% of total digested peptide within the first hour)
Proteasomal Cleavage of C-terminus, HH (HeLa) [3]: + (Major cleavage sites are defined as more than >1% of total digested peptide within the first hour)
generation / processing by household and immunoproteasomes, in words (proteasome): efficiently generated

HLA binding Affinity (Table 5) (HLA-A*0101 [5]; HLA type A1): int
IC50 (HLA-A*0101 [5]; [11]): 5 to 15 µM
Molecule: YLDDRNTFRH [p53 205-214]
HLA binding Stability (Table 5) (HLA-A*0101 [6]): + (Stable peptides displayed IC50 at 20 °C that deviated <2 times of the IC50 at 4° C.)
Peptide Binding Stability (HLA-A*0101 [6]): + (Stable peptides displayed IC50 at 20 °C that deviated <2 times of the IC50 at 4° C.)

Molecule: ALYVDSLFFL [PRA 300-309]
Proteasomal Cleavage of C-terminus, IP (JY) [8]: + (Major cleavage sites are defined as more than >1% of total digested peptide within the first hour)
